Laboratory results reported in paper PMC9029529, “Distinct Mechanisms of Cytotoxicity in Novel Nitrogenous Heterocycles: Future Directions for a New Anti-Cancer Agent” (Molecules, 2022).
Read-outs that look alike come from different tables or passages of the source.

How the values were obtained:
MCF-10A cells = assay: MTT assay, MCF-10A; assay type: cell-based, human; details: for IC50: Homo sapiens, MCF-10A, 24 h, 0 to 250 μM, read-out: IC50 Non-Malignant Breast Epithelial Cells (MCF-10A)
Procedure: (§1) To establish the cytotoxic effect of the nitrogenous derivatives, cells were treated with various concentrations of the drugs ranging from 0 to 250 μM. Following a 24 h incubation period, cell viability was assessed using the MTT assay. Mitoxantrone served as a positive control to evaluate growth inhibition. Since heterogeneity is a hallmark of cancer, the study included cell lines with diverse genomic and proteomic profiles. […] In this regard, further optimization would be required to increase the selective therapeutic potential of compound 9. To determine whether the anti-proliferative effect of the nitrogen derivatives could be translated to other malignancies, we tested the cytotoxic effect on the HCT8 (colorectal cancer) cell line. HCT8 is an adenocarcinoma driven by the Kirsten Rat Sarcoma (KRAS) mutation, unlike MCF-10A [28].
(§2) The MTT assay was utilized to examine the imidazole derivatives’ anti-proliferative activity against MCF-10A, MDA-MB-231, and HCT8 cell lines, purchased from ATCC, USA [47]. Firstly, 5 × 10^3 cells/well were seeded in a 96-well plate in 100 μL of growth medium and were subsequently cultured overnight with various concentrations of each compound ranging from 0 to 250 µM [48]. The media was aspirated, and 50 µL of serum-free media and 50 µL of MTT solution were added to each well. Next, cells were incubated at 37 °C for 3 h, then 150 µL of MTT solvent was added into each well. After that, plates were wrapped in foil and agitated for 15 min on an orbital shaker. Finally, the absorbance was measured within 1 h at OD590 nm. Half-maximal inhibitory concentration IC50 values (μM) were calculated for each compound from the dose–response curve. Experiments were performed in triplicates.

MDA-MB-231 cells [1] = assay: MTT assay, MDA-MB-231; assay type: cell-based, human; details: 0 to 250 μM, read-out: IC50 Breast Cancer (MDA-MB-231)
Procedure: as §1, §2

HCT8 cells = assay: CellTiter-Glo assay, HCT8; assay type: cell-based; details: Homo sapiens, HCT-8, 24 h, read-out: IC50 Colorectal Cancer HCT8
Procedure: (§3) To validate the anti-proliferative activity of the imidazole derivatives, the compounds were tested against several cancer cell lines, which included breast cancer (MDA-MB-231, KAIMRC1, and KAIMRC2), colorectal cancer (HCT8), and acute promyelocytic leukemia cells (HL60). KAIMRC1 was isolated from a person with stage II-B breast cancer and is ER+/PR+ and HER2-. In comparison, KAIMRC2 was isolated from a person with metastasized breast cancer and is a triple-negative (ER-/PR-, and HER2-) tumor cell line.
(§4) The CellTiter-Glo assay (Promega™, Madison, WI, USA) was used to evaluate imidazole and oxazolone derivatives cytotoxicity against various cancer cell lines; MCF-10A, HL60, MDA-MB-231, and HCT8, purchased from ATCC, USA, except KAIMRC1 and KAIMRC2, which were isolated, established, and characterized in the core laboratory facility KAIMRC, Riyadh, Saudi Arabia. The cells were seeded in white 96-well plates at a density of 5 × 10^3 cells/well in a 100 μL of growth medium with various concentrations of each compound ranging from 0 to 250 µM. Cells were incubated at 37 °C for 24 h. Plates were equilibrated at RT for 30 min. A quantity of 100 µL of CellTiter-Glo reagent was added to each well and mixed for 2 min on an orbital shaker. Plates were incubated for 10 min at RT before measuring the luminescence using an Envision plate reader (Perkin Elmer). Half-maximal inhibitory concentration IC50 values (μM) were calculated for each imidazole derivative from the dose–response curve. The cytotoxic effect at a concentration <10 µM was considered strongly active and from 11 to 100 µM was considered moderately active, whereas above 100 µM was deemed non-active. Mitoxantrone was utilized as a positive control. Experiments were performed in triplicates.

MDA-MB-231 cells [2] = assay: CellTiter-Glo assay, MDA-MB-231; assay type: cell-based; details: Homo sapiens, 24 h, read-out: IC50 Breast Cancer MDA-MB-231
Procedure: as §3, §4

[3] = system: tubulin in MDA-MB-231 cells; assay: Tubulin staining and imaging (microtubular network); assay type: cell-based, human; details: 48 h; for effect on the microtubular network / tubulin: MDA-MB-231, 15.6 and 31 µM
Description: An established cytotoxic mechanism of action of some nitrogenous heteroaromatic compounds is through the inhibition of tubulin. Normal microtubule function is essential during mitosis for mitotic spindle formation to allow chromatid separation, without which cell replication would cease. In addition, microtubules are critical for maintaining the cytoskeletal integrity of normal cells. Currently used cytotoxic anti-neoplastic classes of drugs such as the taxanes and vinca alkaloids also either inhibit microtubule assembly or disassembly, thus preventing mitosis from occurring. Therefore, we investigated the effects of compounds 8 and 9 on the modulation of microtubule function by assessing their effect on tubulin.
MDA- MB 231 cells were treated with compounds 8 and 9 at two concentrations, 15.6 and 31.25 µM, for 48 h. The cells were stained with tubulin tracker™ Green (Cat #T34075) in HBSS for 30 min and nucleus stain HOECHST33342 (blue) for 5 min. The samples were imaged with Zeiss laser-scanning 780 microscopes.
Following the standard protocol, tubulin and microtubule-associated proteins (MAPs) were developed, accompanied by two cycles of polymerization and depolymerization. MDA-MB231 cells were treated with compounds 8 and 9 at concentrations of 31.25 and 15.6 µM for 48 h. Subsequently, the media was replaced with HBSS, and the MDA-MB231 cells were stained with tubulin tracker™ Green 51(Cat #T34075) for 30 min and HOECHST33342 for 5 min. The Zeiss laser-scanning 780 microscope was used for imaging.

HL60 cells = assay: CellTiter-Glo assay, HL60; assay type: cell-based, human; details: read-out: IC50 Leukemia HL60
Procedure: as §3, §4

KAIMRC1 cells = assay: CellTiter-Glo assay, KAIMRC1; assay type: cell-based; details: Homo sapiens, 24 h, read-out: IC50 Breast Cancer KAIMRC1
Procedure: as §3, §4

KAIMRC2 cells = assay: CellTiter-Glo assay, KAIMRC2; assay type: cell-based; details: Homo sapiens, 24 h, read-out: IC50 Breast Cancer KAIMRC2
Procedure: as §3, §4

Compound: O=C1/C(=C/c2ccccc2)N=C(c2ccccc2)N1Nc1ccc([N+](=O)[O-])cc1[N+](=O)[O-] [Compound 8]
- IC50 in MCF-10A relative to MDA-MB231 (cytotoxic selectivity) (MCF-10A cells): six-fold higher
- IC50 (MCF-10A cells): 30.7 µM
- IC50 (MDA-MB-231 cells [1]; 24 h): 4.76 µM
- IC50 (MDA-MB-231 cells [1]; Homo sapiens, MDA-MB-231, 24 h): 4.7 µM
- IC50 (HCT8 cells): 33.1 µM
- IC50 (MDA-MB-231 cells [2]): 19 µM
- effect on the microtubular network / tubulin [3]: no effect on tubulin
- IC50 (HL60 cells; 24 h): 9.24 µM
- IC50 (HL60 cells; Homo sapiens, HL-60, 24 h): 9.23 µM
- IC50 (KAIMRC1 cells): 10.2 µM
- IC50 (KAIMRC2 cells): 31.6 µM

Compound: COc1cccc(/C=C2\N=C(c3ccccc3)N(Nc3ccc([N+](=O)[O-])cc3[N+](=O)[O-])C2=O)c1 [Compound 9]
- IC50 (MCF-10A cells): 9.52 µM
- IC50 (MDA-MB-231 cells [1]; Homo sapiens, MDA-MB-231, 24 h): 17 µM
- IC50 (HCT8 cells): 22.1 µM
- IC50 (MDA-MB-231 cells [2]): 39.2 µM
- microtubule inhibition ([3]; MDA-MB-231, 31 µM): nearly complete microtubule inhibition
- effect on the microtubular network / tubulin [3]: interfered with the microtubular network
- IC50 (HL60 cells; 24 h): 8.63 µM
- IC50 (HL60 cells; Homo sapiens, HL-60, 24 h): 8.63 µM
- IC50 (KAIMRC1 cells): 22.2 µM
- IC50 (KAIMRC2 cells): 27.1 µM
